# Measured values published in patent US20240228488A1 (TAKEDA PHARMACEUTICAL COMPANY LIMITED, priority 2021, published 2024).
# How the values were obtained:
# [1] = biological target: human activated kallikrein enzyme (Homo sapiens, UniProt P03952); assay: Plasma kallikrein inhibition, fluorogenic PFR-AMC substrate, 500 pM activated kallikrein format; format: biochemical; settings: 500 pM activated kallikrein, 300 uM PFR-AMC, 30 min preincubation, 10 min reaction; read-out: Primary Dose Response Assay: Average EC50
# human activated kallikrein enzyme, sequence (P03952 391-638 limits assumed): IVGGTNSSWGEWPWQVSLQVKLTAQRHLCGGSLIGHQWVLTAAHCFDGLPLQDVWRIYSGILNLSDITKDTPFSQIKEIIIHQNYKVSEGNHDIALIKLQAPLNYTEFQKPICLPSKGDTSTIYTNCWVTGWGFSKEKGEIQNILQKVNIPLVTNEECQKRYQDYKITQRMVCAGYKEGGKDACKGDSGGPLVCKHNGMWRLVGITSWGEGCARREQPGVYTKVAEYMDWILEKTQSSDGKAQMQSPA
# human activated kallikrein enzyme, sequence (P03952 20-390 partner limits assumed): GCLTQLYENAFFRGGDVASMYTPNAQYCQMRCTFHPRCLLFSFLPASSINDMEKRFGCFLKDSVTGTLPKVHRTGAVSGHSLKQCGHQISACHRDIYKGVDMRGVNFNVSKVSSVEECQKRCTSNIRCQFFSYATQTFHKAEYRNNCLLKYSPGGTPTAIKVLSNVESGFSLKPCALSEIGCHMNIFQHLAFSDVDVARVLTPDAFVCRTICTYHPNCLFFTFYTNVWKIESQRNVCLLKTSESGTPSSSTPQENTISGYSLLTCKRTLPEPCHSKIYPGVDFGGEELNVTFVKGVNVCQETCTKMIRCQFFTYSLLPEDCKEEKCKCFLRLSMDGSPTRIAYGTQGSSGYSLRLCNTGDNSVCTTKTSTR
# Method in brief: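 High-enzyme format of the fluorogenic peptide assay, with EC50 taken from AMC signal: 500 pM activated kallikrein, 300 uM Pro-Phe-Arg-AMC, 30 min compound preincubation and 10 min reaction, all at room temperature, pH 7.5.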
# [2] = biological target: T1, plasma kallikrein (Homo sapiens, UniProt P03952); assay: Neat human plasma assay, FXIIa contact pathway-activated, PFR-AMC substrate; format: biochemical; settings: citrated human plasma 78% final, 10 nM human FXIIa, 100 μM PFR-AMC; read-out: Human Plasma Assay: IC90
# T1 construct: from tissue
# T1 sequence (P03952 391-638 limits assumed): as the sequence (P03952 391-638 limits assumed) above
# T1 sequence (P03952 20-390 partner limits assumed): as the sequence (P03952 20-390 partner limits assumed) above
# Method: To analyze inhibition of plasma kallikrein in an ex vivo setting, the potency of compounds was measure in contact pathway-activated plasma assays. In a fluorogenic peptide substrate assay, test compounds dissolved in DMSO were added to sodium citrate collected human or rat plasma in a 96-well microplate. Alternatively, citrated plasma was collected from rats administered the compounds orally or by IV. 10 nM of human FXIIa (Enzyme Research Laboratories) diluted in pKal buffer (20 mM Tris-HCl, pH 7.5, 150 mM NaCl, 1 mM EDTA, 0.1% PEG-8000, and 0.1% Triton X-100) was added to the plasma, followed by the 100 μM of the profluorescent, synthetic plasma kallikrein substrate PFR-AMC (also diluted in pKal buffer). Final plasma concentration in the reaction was 78%. Fluorescence was immediately monitored by excitation/emission wavelengths of 360 nm/480 nm respectively over a period of 5 minutes in a microplate reader. The resulting linear increase in fluorescence emission (reflecting pKal proteolysis of PFR-AMC substrate) was fit to extract a proteolytic rate (fluorescent units over time), and this rate was subsequently plotted against compound inhibitor concentration. Resulting plots were fit to a standard 4-parameter IC50/IC90 equation to determine min/max values, IC50/90, and slope. All experimental steps were performed at room temperature. Table 50 provides results of the assay.
SMILES,EC50 [1] [nM],IC90 [2] [nM]
"CN1CCN(c2cc(C3CC3)cn3cc(COc4ccnc(NC(=O)[C@H]5C[C@@H]5c5cccc(Cl)c5)c4)nc23)CC1 [Example 565, (1S,2S)-2-(3-chlorophenyl)-N-(4-((6-cyclopropyl-8-(4-methylpiperazin-1-yl)imidazo[1,2-a]pyridin-2-yl)methoxy)pyridin-2-yl)cyclopropane-1-carboxamide]",1 to 10,1500 to 10000
"CN1CCN(c2cc(C3CC3)cn3cc(CNc4ccnc(NC(=O)[C@H]5C[C@@H]5c5cccc(Cl)c5)c4)nc23)CC1=O [Example 130, (1S,2S)-2-(3-chlorophenyl)-N-(4-(((6-cyclopropyl-8-(4-methyl-3-oxopiperazin-1-yl)imidazo[1,2-a]pyridin-2-yl)methyl)amino)pyridin-2-yl)cyclopropane-1-carboxamide]",< 1,400 to 1500
"COc1nc(NC(=O)[C@H]2C[C@@H]2c2nccc(C)n2)cc(N(C)Cc2cn3cc(C4CC4)cc(N4CC(=O)N(C)C4=O)c3n2)n1 [Example 406, (1S,2S)-N-(6-(((6-cyclopropyl-8-(3-methyl-2,4-dioxoimidazolidin-1-yl)imidazo[1,2-a]pyridin-2-yl)methyl)(methyl)amino)-2-methoxypyrimidin-4-yl)-2-(4-methylpyrimidin-2-yl)cyclopropane-1-carboxamide]",< 1,< 400
"Cc1ccnc([C@@]2(F)C[C@@H]2C(=O)Nc2cc(NCc3cn4cc(C5CC5)cc(N5CC(=O)N(C)C5=O)c4n3)ncn2)n1 (racemic) [Example 496, rac-(1S*,2S*)-N-(6-(((6-cyclopropyl-8-(3-methyl-2,4-dioxoimidazolidin-1-yl)imidazo[1,2-a]pyridin-2-yl)methyl)amino)pyrimidin-4-yl)-2-fluoro-2-(4-methylpyrimidin-2-yl)cyclopropane-1-carboxamide]",< 1,< 400
"COc1nc(NC(=O)[C@H]2C[C@@H]2c2nccc(C)n2)cc(N[C@H](C)c2cn3cc(C4CC4)cc(N4CC(=O)N(C)C4=O)c3n2)n1 [Example 407, (1S,2S)-N-(6-(((R)-1-(6-cyclopropyl-8-(3-methyl-2,4-dioxoimidazolidin-1-yl)imidazo[1,2-a]pyridin-2-yl)ethyl)amino)-2-methoxypyrimidin-4-yl)-2-(4-methylpyrimidin-2-yl)cyclopropane-1-carboxamide]",< 1,400 to 1500
"CC(C)(O)c1cc(C2CC2)cn2cc(CNc3ccnc(NC(=O)[C@H]4C[C@@H]4c4cc(Cl)ccc4C#N)c3)nc12 (racemic) [Example 131, rac-(1S*,2S*)-2-(5-chloro-2-cyanophenyl)-N-(4-(((6-cyclopropyl-8-(2-hydroxypropan-2-yl)imidazo[1,2-a]pyridin-2-yl)methyl)amino)pyridin-2-yl)cyclopropane-1-carboxamide]",< 1,10000 to 48000
"O=C(Nc1cc(NCc2cn3cc(C4CC4)cc(CCCO)c3n2)ccn1)[C@H]1C[C@@H]1c1cccc(Cl)c1 [Example 291, (1S,2S)-2-(3-chlorophenyl)-N-(4-(((6-cyclopropyl-8-(3-hydroxypropyl)imidazo[1,2-a]pyridin-2-yl)methyl)amino)pyridin-2-yl)cyclopropane-1-carboxamide]",< 1,1500 to 10000
"CN1C(=O)CN(c2cc(C3CC3)cn3cc(COc4cnnc(NC(=O)[C@H]5C[C@@H]5c5cccc(Cl)c5)c4)nc23)C1=O [Example 557, (1S,2S)-2-(3-chlorophenyl)-N-(5-((6-cyclopropyl-8-(3-methyl-2,4-dioxoimidazolidin-1-yl)imidazo[1,2-a]pyridin-2-yl)methoxy)pyridazin-3-yl)cyclopropane-1-carboxamide]",< 1,400 to 1500
"CN1C(=O)CN(c2cc(C3CC3)cn3cc([C@H]4C[C@H](O)CN4c4cc(NC(=O)[C@H]5C[C@@H]5c5cccc(Cl)c5)ncn4)nc23)C1=O [Example 480, (1S,2S)-2-(3-chlorophenyl)-N-(6-((2R,4S)-2-(6-cyclopropyl-8-(3-methyl-2,4-dioxoimidazolidin-1-yl)imidazo[1,2-a]pyridin-2-yl)-4-hydroxypyrrolidin-1-yl)pyrimidin-4-yl)cyclopropane-1-carboxamide]",1 to 10,< 400
"Cc1ccnc([C@H]2C[C@@H]2C(=O)Nc2cc(OCc3cn4cc(C5CC5)cc(N5CC(=O)N(C)C5=O)c4n3)ncn2)n1 (single isomer, unassigned) [Example 30]",< 1,< 400
"O=C(Nc1cc(NCc2cn3cc(C4CC4)cc(N4C[C@@H](O)CC4=O)c3n2)ncn1)[C@H]1C[C@@H]1c1cccc(Cl)c1 (relative stereo) [Example 62, (rac-(1S*,2S*))-2-(3-chlorophenyl)-N-(6-(((6-cyclopropyl-8-((S)-4-hydroxy-2-oxopyrrolidin-1-yl)imidazo[1,2-a]pyridin-2-yl)methyl)amino)pyrimidin-4-yl)cyclopropane-1-carboxamide]",1 to 10,1500 to 10000

# Continued, values first:
EC50 [1] [nM],IC90 [2] [nM],SMILES
1 to 10,400 to 1500,"CN1C(=O)CN(c2cc(C3CC3)cn3cc(CNc4cc(NC(=O)[C@H]5C[C@@H]5c5nccc(C(F)F)n5)ncn4)nc23)C1=O (racemic) [Example I-164, rac-(1S*,2S*)-N-(6-(((6-cyclopropyl-8-(3-methyl-2,4-dioxoimidazolidin-1-yl)imidazo[1,2-a]pyridin-2-yl)methyl)amino)pyrimidin-4-yl)-2-(4-(difluoromethyl)pyrimidin-2-yl)cyclopropane-1-carboxamide]"
< 1,1500 to 10000,"CN1CCN(c2cc(C3CC3)cn3cc(CNc4cc(NC(=O)[C@H]5C[C@@H]5c5cccc(Cl)c5)ncn4)nc23)C1=O [Example I-157, (1S,2S)-2-(3-chlorophenyl)-N-(6-(((6-cyclopropyl-8-(3-methyl-2-oxoimidazolidin-1-yl)imidazo[1,2-a]pyridin-2-yl)methyl)amino)pyrimidin-4-yl)cyclopropane-1-carboxamide]"
< 1,< 400,"Cc1ccnc([C@H]2C[C@@H]2C(=O)Nc2cc(N(C)Cc3cn4cc(C5CC5)cc(N5CC(=O)N(C)C5=O)c4n3)cnn2)n1 [Example I-254, (1S,2S)-N-(5-(((6-cyclopropyl-8-(3-methyl-2,4-dioxoimidazolidin-1-yl)imidazo[1,2-a]pyridin-2-yl)methyl)(methyl)amino)pyridazin-3-yl)-2-(4-methylpyrimidin-2-yl)cyclopropane-1-carboxamide]"
< 1,1500 to 10000,"CN1C(=O)CCN(c2cc(C3CC3)cn3cc(CNc4cc(NC(=O)[C@H]5C[C@@H]5c5cccc(Cl)c5)ncn4)nc23)C1=O [Example I-194, (1S,2S)-2-(3-chlorophenyl)-N-(6-(((6-cyclopropyl-8-(3-methyl-2,4-dioxotetrahydropyrimidin-1(2H)-yl)imidazo[1,2-a]pyridin-2-yl)methyl)amino)pyrimidin-4-yl)cyclopropane-1-carboxamide]"
< 1,10000 to 48000,"COc1ccc(C#N)c([C@H]2C[C@@H]2C(=O)Nc2cc(NCc3cn4cc(C5CC5)ccc4n3)ccn2)c1 (single isomer, unassigned) [Example I-224, rac-(1S*,2S*)-2-(2-cyano-5-methoxyphenyl)-N-(4-(((6-cyclopropylimidazo[1,2-a]pyridin-2-yl)methyl)amino)pyridin-2-yl)cyclopropane-1-carboxamide]"
